Where “and” joins values, the source holds several entries; their conditions need not be identical. Identical values can stand only once. Entries after “also recorded” stand apart in the source; their conditions may differ. Like-named read-outs stand apart in the source and are kept apart here.
Assays:
[1] = Parallel artificial membrane permeability (IAM column) prediction of CNS permeability; type: in vitro ADME
Experimental: To predict the potential for brain permeability, a Regis Technologies analytical column connected to an Agilent HPLC system (Infinity 1260 quaternary pump and multiple wavelength detector; 1200 autosampler) was used. An IAM.PC.DD column was (4.6 mm i.d.×10 cm, particle size 5 μm; pore size 300 Å) conditioned with 20 column volumes of mobile phase or until a stable line was achieved. A mobile phase with a consistent flow rate of 1 mL/min was used comprising 100 mM Na2PO4 (solvent A) and acetonitrile (solvent B); compounds were eluted using a gradient (min/% B: 0/30, 10/60, 11/30, 15/30). Detector settings were 220, 250 and 280 nm and acquisition time was 15 min. The autosampler injected 10 μL of compound at 2 mM final, diluted from 10 mM in DMSO in 70:30 (water:acetonitrile). After elution, compound retention and void volume times were obtained from the chromatogram. The IAM capacity factor: (KIAM) was calculated using the equation: […]
where tr is the retention time of a compound and t0 is the void volume time of the column. To predict CNS permeability, we used the correlation described by the formula below.

Human AChE = molecular target: T1, Human AChE (Homo sapiens, UniProt P22303); assay: biochemical; settings: IC50 AChE
T1 construct: purchased Sigma
Experimental: This acetylcholinesterase (AChE) assay is based on an Amplex Red assay kit (Thermo Fisher A12217). Human AChE (Sigma) was used. Briefly, 5 μL of compounds at the desired concentration were loaded into wells of a 384-well plate. Then, 5 μl of human AChE (30 mU/mL) was loaded into each well, followed by the addition of 10 μL of the working solution which contains 400 μM Amplex Red reagent, 2 U/mL HRP, 0.2 U/mL choline oxidase, and 100 μM acetylcholine. The reaction was monitored for 60 minutes and read at 530/590 nm. AChE IC50 was determined by plotting AChE activity as a percentage of DMSO control using GraphPad Prism software.

[2] = molecular target: human serum albumin (HSA) (Homo sapiens, UniProt P02768); assay: Binding to human serum albumin (HSA); settings: for fraction unbound: human, human serum albumin
human nSMase2 = molecular target: T2, human nSMase2 (Homo sapiens, UniProt Q9NY59); assay: biochemical; type: biochemical; settings: IC50 nSMase2
T2 construct: expressed in transfected cells; host or cells: HEK293T
T2 sequence (Q9NY59 1-655): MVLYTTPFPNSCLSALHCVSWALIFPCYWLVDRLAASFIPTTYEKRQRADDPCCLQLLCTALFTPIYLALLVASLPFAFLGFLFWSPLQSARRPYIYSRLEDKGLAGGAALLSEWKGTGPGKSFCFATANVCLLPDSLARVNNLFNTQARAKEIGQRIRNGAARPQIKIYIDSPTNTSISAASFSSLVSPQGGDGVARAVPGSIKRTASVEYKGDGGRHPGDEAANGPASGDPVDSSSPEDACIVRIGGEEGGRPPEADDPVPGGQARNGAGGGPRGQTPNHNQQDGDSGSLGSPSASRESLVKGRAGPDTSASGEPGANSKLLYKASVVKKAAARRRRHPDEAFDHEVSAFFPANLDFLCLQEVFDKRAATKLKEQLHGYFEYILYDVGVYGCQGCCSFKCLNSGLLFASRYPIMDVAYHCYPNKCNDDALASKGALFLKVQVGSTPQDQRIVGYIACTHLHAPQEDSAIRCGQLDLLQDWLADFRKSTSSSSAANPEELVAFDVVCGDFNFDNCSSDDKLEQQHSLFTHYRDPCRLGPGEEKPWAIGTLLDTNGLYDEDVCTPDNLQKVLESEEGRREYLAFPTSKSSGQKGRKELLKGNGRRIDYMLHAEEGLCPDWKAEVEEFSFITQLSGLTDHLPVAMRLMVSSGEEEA
Experimental: To evaluate nSMase2 inhibitory activity of tested compounds, cell lysates from HEK293T cells over-expressing human nSMase2 were used as the source of the nSMase2 enzyme. The Amplex Red Sphingomyelinase activity assay was performed according to previously a described protocol^1. Confluent cells were washed with PBS and harvested with lysis buffer [100 mM Tris-HCl pH 7.5, 100 mM sucrose, 100 μM PMSF, 1× protease inhibitor cocktail] using a cell scraper, and then sonicated 3 times on ice for 10 sec and centrifuged at 10,000×g for 10 min at 4° C. to remove remaining cell debris. An initial screening of a compound library was performed using 50 μM compound concentrations. In secondary testing, selected compounds were analyzed at multiple compound concentrations and plotted as a percentage of DMSO control; dose-response curves were generated to determine IC50s using GraphPad Prism software (GraphPad Software, La Jolla Calif.). […] Activity of the enzyme in the presence of the different concentrations of the inhibitors was plotted against substrate concentration and the maximal rate of the enzymatic reaction (Vmax) and Michaelis constant were calculated using GraphPad Prism.

[3] = system: HEK293T Tau RD P301S FRET biosensor cells; assay: Tau biosensor cells seeded with AD brain synaptosomal (P2) extract, FRET signal; type: cell-based; settings: 10 μM, imaged after 24 hrs, vs DMSO
Experimental: Brain autopsy samples were obtained from the University of California Irvine, University of Southern California AD Research Centers, and University of California, Los Angeles. Brain tissue was cryopreserved and synaptosomal fractions (P2-fractions, or P2) were prepared as previously described. In order to prepare P2-extracts, aliquots were quickly defrosted at 37° C. and centrifuged at 10,000×g for 10 min at 4° C. to remove P2 from sucrose. After aspirating the supernatant, cold PBS was added to each sample in Ma 1:5 weight/volume ratio. Samples were then sonicated in 10-second intervals three times, incubated on ice for 30 min and centrifuged at 20,000 g for 20 min at 4° C. P2 extracts were collected and stored at −80° C. Tau biosensor cell treatment and analysis. HEK293T Tau RD P301S FRET biosensor cells (tau biosensors) were growing in the Dulbecco's Modified Eagle's medium (DMEM) with higher glucose, 10% FBS, and 1% Penicillin-streptomycin at 37° C./5% CO2. Cells were plated in 10-sm dishes (3 million cells per dish in the regular medium) and grown for 12 hrs. Cells were transduced with pulled synaptosomal (P2) extracts from AD cases using lipofectamine 2000. […]
Cells were imaged after 24 hrs using automated microscope imaging system (Lionheart FX) equipped with 20× objective and CFP-YFP FRET Image filter cube. […] FRET signal was detected using LSRII flow cytometer (BD biosciences). […]

[4] = system: HEK293T Tau RD P301S FRET biosensor (tau biosensor) cells; assay: EV-mediated tau seed transfer (EMT) assay; type: cell-based; settings: 20 μM
[5] = system: Tau P301S (PS19 line) tauopathy mouse model; assay: Rapid in vivo assay: IL1β-induced brain EV release; design: species or system mice
[6] = system: HEK293T Tau RD P301S FRET biosensor (tau biosensor) cells; assay: Donor plus Recipient (D+R) tau propagation assay; type: cell-based; settings: 20 μM, 48 hrs
Experimental: HEK293T Tau RD P301S FRET biosensor (tau biosensor) cells were grown in Dulbecco's Modified Eagle's medium (DMEM) with high glucose, 10% FBS, and 1% Penicillin-streptomycin at 37° C./5% CO2. The lead inhibitors were tested in functional tau propagation “D+R” (Donors plus Recipients) and EMT (EV-mediated transfer) assays using the tau biosensors. Briefly, tau aggregation in donor cells (D) was induced by transfection of tau biosensor cells with human AD brain derived synaptosomal extracts (35 μg of synaptosomal fraction for 5 million cells in one 10 cm dish); control cells were treated with corresponding amount of transfection reagent lipofectamine 2000. After 24 hr incubation, the cells were trypsinized and plated together with DID-labeled recipient cells (R) in a 1:1 ratio in 96-well plates (15,000 of each cell type per well) for D+R assay or 1.5 million of donor cells per well in 6-well plates for EMT assay. Tested compounds or a corresponding amount of DMSO (0.2%) was added to the cell culture medium, DMEM, which contained 10% of exosome-depleted FBS (ThermoFisher, A2720803). Four technical replicates were used for each experimental condition. The inhibitors were tested at 20 μM concentration. […] Tau seed transfer from donor to recipient cells results in FRET signal generation in the DID-positive recipient cells, which was measured by flow cytometry. Integrated FRET density was calculated in the top 30% of DID-positive cell based on DID signal intensity.
(§1) An Attune NxT Flow Cytometer (Invitrogen) equipped with an autosampler and FRET-compatible laser lines and filter sets was used for FRET signal detection. The FRET (CFP/YFP) signal was excited by a 405 nm laser for CFP excitation and detected in the YFP image detection channel. Flow cytometry data was analyzed using FCS Express version 5 software (DeNovo Software California, USA). Integrated FRET density was calculated as a product of percentage FRET positive cells and median of fluorescent intensity of the FRET positive cells as previously established.

[7] = system: HEK293T Tau RD P301S FRET biosensor (tau biosensor) cells; assay: EV-mediated tau seed transfer (EMT) assay; type: cell-based
Experimental: HEK293T Tau RD P301S FRET biosensor (tau biosensor) cells were grown in Dulbecco's Modified Eagle's medium (DMEM) with high glucose, 10% FBS, and 1% Penicillin-streptomycin at 37° C./5% CO2. The lead inhibitors were tested in functional tau propagation “D+R” (Donors plus Recipients) and EMT (EV-mediated transfer) assays using the tau biosensors. Briefly, tau aggregation in donor cells (D) was induced by transfection of tau biosensor cells with human AD brain derived synaptosomal extracts (35 μg of synaptosomal fraction for 5 million cells in one 10 cm dish); control cells were treated with corresponding amount of transfection reagent lipofectamine 2000. After 24 hr incubation, the cells were trypsinized and plated together with DID-labeled recipient cells (R) in a 1:1 ratio in 96-well plates (15,000 of each cell type per well) for D+R assay or 1.5 million of donor cells per well in 6-well plates for EMT assay. Tested compounds or a corresponding amount of DMSO (0.2%) was added to the cell culture medium, DMEM, which contained 10% of exosome-depleted FBS (ThermoFisher, A2720803). Four technical replicates were used for each experimental condition. The inhibitors were tested at 20 μM concentration. In 48 hours 50 μL of culture medium per well were collected for cell viability test (Cytotox 96 non-radioactive cytotoxicity assay, Promega Corp., Madison, Wis.). The cells in D+R assay were harvested at the 48 hr time point and fixed with 2% paraformaldehyde for flow cytometry analysis according to published protocol. Tau seed transfer from donor to recipient cells results in FRET signal generation in the DID-positive recipient cells, which was measured by flow cytometry. Integrated FRET density was calculated in the top 30% of DID-positive cell based on DID signal intensity.
For the EMT assay, cell culture medium from donor cells growing for 48 hours with the compounds at concentrations of 20 μM or a corresponding amount of DMSO (0.2%), was collected and EVs were purified using the ExoQuick-TC kit (SBI biosciences) according to the manufacturer's instructions. Naïve recipient cells were plated in 96 well plates at a density of 20,000 cells per well in exosome-free medium and transfected with donor cell-derived exosomes at 12 hrs. The recipient cells were harvested 60 hours after transfection and FRET signals were analyzed using flow cytometry.
as §1, with “The FRET (CFP/YFP) signal was excited by a 405 nm laser for CFP excitation and detected in the YFP image detection channel.” left out

[8] = Brain pharmacokinetic analysis after SQ dosing
Experimental: Pharmacokinetic (PK) analysis on the leads 8 and 11 to determine brain permeability using wild type mice was performed. The compounds were subcutaneously (SQ) injected at a dose of 20 mg per kg of body weight (mpk). Brain and plasma samples were collected 1, 2, and 4 hours after dosing.

T1 sequence (P22303 32-614): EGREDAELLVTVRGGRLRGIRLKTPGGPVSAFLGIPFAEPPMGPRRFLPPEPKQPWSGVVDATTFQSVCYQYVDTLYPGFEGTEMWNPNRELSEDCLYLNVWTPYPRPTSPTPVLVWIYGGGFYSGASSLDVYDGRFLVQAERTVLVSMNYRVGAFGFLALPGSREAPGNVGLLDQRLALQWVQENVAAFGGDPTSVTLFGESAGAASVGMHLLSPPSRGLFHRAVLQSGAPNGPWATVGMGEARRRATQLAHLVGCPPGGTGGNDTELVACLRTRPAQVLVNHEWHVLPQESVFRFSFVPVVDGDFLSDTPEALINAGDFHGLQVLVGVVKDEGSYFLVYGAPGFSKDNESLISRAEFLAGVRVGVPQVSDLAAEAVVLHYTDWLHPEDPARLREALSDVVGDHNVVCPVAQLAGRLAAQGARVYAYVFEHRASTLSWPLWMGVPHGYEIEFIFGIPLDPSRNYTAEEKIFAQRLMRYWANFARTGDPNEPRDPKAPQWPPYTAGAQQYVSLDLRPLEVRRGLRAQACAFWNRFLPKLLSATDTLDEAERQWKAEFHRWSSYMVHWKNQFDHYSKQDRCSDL
Sequence of human serum albumin (HSA) (P02768 25-609): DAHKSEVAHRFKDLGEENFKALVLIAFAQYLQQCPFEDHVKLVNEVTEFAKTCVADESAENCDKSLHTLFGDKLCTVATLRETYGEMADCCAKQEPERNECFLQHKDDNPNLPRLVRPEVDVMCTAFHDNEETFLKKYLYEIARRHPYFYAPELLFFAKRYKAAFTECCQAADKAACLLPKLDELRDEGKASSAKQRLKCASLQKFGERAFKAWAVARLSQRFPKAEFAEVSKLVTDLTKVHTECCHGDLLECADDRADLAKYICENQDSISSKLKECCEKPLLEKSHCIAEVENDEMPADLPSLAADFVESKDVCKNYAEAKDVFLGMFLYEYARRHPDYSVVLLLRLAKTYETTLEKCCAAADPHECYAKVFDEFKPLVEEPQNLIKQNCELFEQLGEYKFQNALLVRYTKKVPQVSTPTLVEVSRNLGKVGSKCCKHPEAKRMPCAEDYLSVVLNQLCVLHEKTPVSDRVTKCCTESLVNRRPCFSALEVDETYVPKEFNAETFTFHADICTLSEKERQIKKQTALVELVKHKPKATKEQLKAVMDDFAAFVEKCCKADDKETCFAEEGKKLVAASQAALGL

Compound: CN1c2ccc(OC(=O)NC3CCCCC3)cc2[C@]2(C)CCO[C@H]12 [Compound 5]
- CNS perm (PAMPA) [1]: 2.8
- IC50 (Human AChE): 300 nM
- fraction unbound [2]: 0.17
- IC50 (human nSMase2): 3400 nM

Compound: O=c1[nH]c(=S)[nH]c(-c2ccccc2)c1Cc1c(O)ccc2ccccc12 [DDL-112, cambinol]
- amount of FRET-positive tau aggregates (microscopy) [3]: visibly decreased

Compound: CN1c2ccc(OC(=O)Nc3ccncc3)cc2[C@]2(C)CCO[C@H]12 [Compound 8]
- CNS perm (PAMPA) ([1]; PAMPA, 2 mM): 1.9
- EV size distribution of donor-derived EVs (TRPS) [4]: did not affect
- concentrations of exosomal-type small EVs from donor cells [4]: decreased
- levels of exosomal markers CD63, CD81, and syntenin-1 in donor EVs ([4]; vs DMSO control): reduced
- IL1β-induced tau release by exosomes ([5]; 20 mg/kg SQ): less effective
- IL1β-induced brain EV / exosomal release (small EV concentration, TRPS) ([5]; mouse, in vivo, 20 mg/kg): didn't induce the same level of suppression
- tau seed transfer from donor to recipient cells, D+R assay [6]: suppress tau propagation; also recorded: significantly suppresses
- IC50 (Human AChE): 6000 nM
- degree of binding to human serum albumin (HSA) [2]: low degree of binding
- fraction unbound [2]: 0.28
- tau seed transfer from donor to recipient cells, EMT assay ([7]; 20 μM, donor cells 48 hrs): suppress tau propagation; also recorded: significantly suppresses
- brain penetration (compound levels in brain tissue, LC-MS/MS) ([8]; mice, 20 mg/kg SQ): penetrated the brain
- concentration at 1 h ([8]; mouse, in vivo, 20 mg/kg): 61 ng/g and ~200 nM
- time of peak brain levels after SQ dosing ([8]; wild type mice, 20 mg/kg SQ): around one

Compound: CCN(C)C(=O)Oc1cccc([C@H](C)N(C)C)c1 [rivastigmine, reference compound]
- EV-mediated transfer from donor to recipient cells ([7]; preliminary experiments, data not shown): may partially suppress

Compound: COc1cc(NC(=O)Oc2ccc3c(c2)[C@]2(C)CCO[C@@H]2N3C)cc(OC)c1 [Compound 7]
- CNS perm (PAMPA) [1]: 1.8
- IC50 (Human AChE): 300 nM
- fraction unbound [2]: 0.09
- IC50 (human nSMase2): 2000 nM

From patent US20230113944A1, “COMPOSITIONS AND METHODS FOR THE TREATMENT OF NEURODEGENERATIVE DISEASES” (priority 2020, published 2023)
